Experimental data as given in US10434112B2, “Use of agonists of formyl peptide receptor 2 for treating dermatological diseases” (Allergan, Inc., priority 2013, dated 2019).

What was measured:
human FPR2 receptor = human FPR2 receptor (Homo sapiens (Human), UniProt P25090); assay: FLIPR Ca+2 response in HEK-Gα16 cells stably expressing the human FPR2 receptor; type: cell-based; set-up: FPR2 (% eff): unit not given here; conditions: Table 4; value in brackets, given mostly as fraction
How it was run: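 HEK-Gα16 cells stably expressing human FPR2, loaded with 2 μM Fluo-4 in HBSS/20 mM HEPES for 40 min at 37° C., then washed. Ligands added in HBSS/Hepes and Ca+2 responses recorded on FLIPR in relative fluorescence units.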

[1] = tested on: LL-37-induced inflammation in mouse ears; assay: LL37-induced model of rosacea in mice (ear thickness); type: in vivo; conditions: topical application to ears; FIG. 2; p<0.05 vs. vehicle at all time points
Experimental: Prior to dosing, animals are lightly anaesthetized with isofluorane and baseline right and left ear thickness measurements are made with a digital caliper (Mitutoyo 293-340). At t=−1 hrs, animals are lightly anaesthetized with isoflurane to allow topical application (dorsal side) of 10 μL of FPR2 agonist formulated in a vehicle consisting of PBS:ethanol (50:50), or vehicle control to both ears. At t=0 hr, mice are re-anaesthetized. Following ear thickness measurements, 20 uL of LL-37 (100 μM) is injected into the right ear, while PBS is injected into the left ear. Additional ear thickness measurements are taken at t=3 and 6 hours. After the last time point, mice are euthanized by CO2 inhalation and ears collected for additional analyses.

FPRL-1 = FPRL-1 (Homo sapiens (Human), UniProt P25090); assay: FPRL-1 Ga16-CHO EC50 (efficacy); type: cell-based; conditions: Table 3; value in brackets
Chain of FPRL-1 (P25090 whole entry): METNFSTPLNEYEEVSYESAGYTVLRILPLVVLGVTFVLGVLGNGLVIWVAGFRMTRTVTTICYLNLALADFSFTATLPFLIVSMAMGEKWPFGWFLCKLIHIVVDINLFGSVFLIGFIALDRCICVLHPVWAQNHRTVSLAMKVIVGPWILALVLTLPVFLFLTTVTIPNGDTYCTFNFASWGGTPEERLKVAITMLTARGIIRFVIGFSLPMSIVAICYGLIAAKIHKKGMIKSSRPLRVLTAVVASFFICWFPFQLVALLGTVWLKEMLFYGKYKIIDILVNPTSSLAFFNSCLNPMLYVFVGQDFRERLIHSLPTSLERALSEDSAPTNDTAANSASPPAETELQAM

Chain of human FPR2 receptor (P25090 whole entry): as above

SMILES	FPR2 (% eff) (human FPR2 receptor)	Anti-inflammatory activity in the LL-37-induced rosacea mouse model [1]	FPRL-1 Gal16-CHO (efficacy) (FPRL-1)
CC[C@H](C)[C@H](NC(=O)Nc1ccc(Br)cc1)C(=O)NCC(=O)O [Compound 3, {[(2S,3S)-2-{[(4-bromophenyl)carbamoyl]amino}-3-methylpentanoyl]amino} acetic acid]	1.0	Anti-inflammatory activity	–
CC(C)C[C@H](NC(=O)Nc1ccc(Br)cc1F)C(=O)NCC(=O)O [Compound 7, {[(2S)-2-{[(4-bromo-2-fluorophenyl)carbamoyl]amino}-4-methylpentanoyl]amino} acetic acid]	–	Anti-inflammatory activity	–
CC(C)C[C@H](NC(=O)Nc1ccc(Br)cc1)C(=O)NCC(=O)O [Compound 8, {[(2S)-2-{[(4-bromophenyl)carbamoyl]amino}-4-methylpentanoyl]amino} acetic acid]	–	Anti-inflammatory activity	–
O=C(CN1C(=O)NC2(CCCCC2)C1=O)Nc1ccc(Br)cc1 [N-(4-bromophenyl)-2-(2,4-dioxo-1,3-diazaspiro[4.5]dec-3-yl)acetamide]	–	–	0.89
CCC1(CC)NC(=O)N(CC(=O)Nc2ccc(Br)cc2)C1=O [N-(4-bromophenyl)-2-(4,4-diethyl-2,5-dioxoimidazolidin-1-yl)acetamide]	–	–	0.98
CC1(C)NC(=O)N(CC(=O)Nc2ccc(Br)cc2)C1=O [N-(4-bromophenyl)-2-(4,4-dimethyl-2,5-dioxoimidazolidin-1-yl)acetamide]	–	–	0.94
